Laboratory results reported in patent US8450067B2, “Method for obtaining anti-idiotype antibodies” (Omrix Biopharmaceuticals Inc., priority 2002, dated 2013).
Read-outs that look alike come from different tables or passages of the source.

Key:
mice = settings: responder mice (BALB/c, SJL), cited from earlier work
[1] = test system: immunoglobulin elution peak from a peptide column bound with peptide 707; assay: ELISA of peptide column eluate with biotinylated peptides (707 column); format: binding, human; settings: FIG. 4
Method: (§1) To measure the binding efficacy of peptide column eluates (706 and 707) the following ELISA was performed:
(§2) Microtiter plates (Costar, USA) were coated overnight at 2-8° C. with 10 μg/ml NeutrAvidin (Pierce, USA) suspended in 0.1M, pH 8.8, of carbonate-bicarbonate buffer (Sigma USA). The coating solution was removed, washed three times with washing buffer (1×PBS) and 200 μl of blocking solution (freshly prepared 1% I Block, Tropix, USA) per well was added and incubated for 1 hour at 37° C. Coated and blocked plates can be stored at −20° C. for a month before use.
(§3) Tested samples diluted in the blocking solution were mixed in a separate tube with 1 μg/ml (final concentration) of the appropriate biotinylated peptide and the mixture was incubated for 1 hour at 37° C. 100 μl from each reaction tube was then transferred to the blocked microtiter plate and incubated at 37° C. for ½ hour. A 100 μl of 1:5000 Alkaline Phosphatase conjugate goat anti human IgG (Heavy and light chain from Jackson, USA) diluted in the blocking buffer was applied into the microtiter well and incubated for 1 hour. […] The measurement was done photometrically at 405 nm.

[2] = test system: anti-anti-dsDNA (anti-Id) isolated from IVIG; assay: Direct binding of anti-Id to the synthetic peptides by ELISA; set-up: species or system human
Method: (§4) The binding of anti-Id to the peptides was tested by ELISA.
(§5) ELISA plates were coated by 10 ug/ml of peptides in PBS overnight at 4° C. The plates were blocked with 3% BSA for 1hr at 37° C. Anti-Id was added at different concentrations. IgG purified from one donor was used as negative control.
(§6) The binding of the immunoglobulin was probed with goat anti-human IgG conjugated to alkaline phosphatase and the appropriate substrate. Between each step, extensive washings were performed with 0.05% PBS-Tween.
(§7) The same protocol was used as above, but the peptides used in this study were taken from the literature except for peptide number 1 which is the first peptide in the previous experiment.

[3] = test system: control IgG (IgG purified from one donor); assay: Direct binding ELISA, negative control immunoglobulin; set-up: species or system human
Method: as §4, §5, §6, §7

[4] = test system: immunoglobulin eluted from a peptide column bearing the peptide 706; assay: ELISA of peptide column eluate with biotinylated peptides (706 column); format: binding, human; settings: FIG. 3; biotinylated peptide 1 μg/ml
Method: as §1, §2, §3

[5] = Table 2, anti-Id 10 μg/ml, plates coated with 10 ug/ml peptide

Row | Substance | binding of anti-Id to peptide (OD at 405 nm) ([2]; Table 2, anti-Id 1 μg/ml) | binding of anti-Id to peptide (OD at 405 nm) ([2]; Table 2, anti-Id 2.5 μg/ml) | binding of anti-Id to peptide (OD at 405 nm) ([2]; Table 2, anti-Id 5 μg/ml) | binding of anti-Id to peptide (OD at 405 nm) [2, 5] | binding of control IgG to peptide (OD at 405 nm) ([3]; Table 2, control IgG 1 μg/ml) | binding of control IgG to peptide (OD at 405 nm) ([3]; Table 2, control IgG 5 μg/ml) | also measured
1 | YYCARFLWEPYAMDYWGQGS [Pep 707, 16.6 monoclonal antibody CDR3-based peptide] | – | – | – | – | – | – | induction of SLE-like disease in mice (mice): can cause SLE symptoms; induction of SLE-like disease in mice (mice; listed as pCDR3): induced a mild SLE-like disease; specificity of the elution peak from the column bound with the peptide [1]: reacted in a non-specific manner
2 | DWLYSRS [Pep 13] | 0.112 | 0.099 | 0.387 | 0.748 | 0.069 | 0.078 | –
3 | PLPDWRV [Pep 12] | 0.042 | 0.072 | 0.273 | 1.356 | 0.043 | 0.045 | –
4 | GIWELSKEPSQKVWQMYYGT [Pep R706, reverse order of CDR1, used as a control] | – | – | – | – | – | – | binding of 706 column eluate to biotinylated peptide [4]: not; binding of 707 column eluate to biotinylated peptide ([1]; biotinylated peptide 1 μg/ml): reacted even more strongly
5 | PPQKHLL [Pep 14] | 0.113 | 0.234 | 0.611 | 0.987 | 0.079 | 0.083 | –
6 | KYKRKYP [Pep 15] | 0.049 | 0.067 | 0.117 | 0.287 | 0.037 | 0.068 | –
7 | KHETTET [Pep 1] | 0.046 | 0.269 | 1.329 | 1.815 | 0.013 | 0.016 | binding of anti-Id to peptide (OD at 405 nm) ([2]; Table 3 (literature peptides), anti-Id 10 μg/ml): 1.21; binding of anti-Id to peptide (OD at 405 nm) ([2]; Table 3, anti-Id 1 μg/ml): 0.041; binding of anti-Id to peptide (OD at 405 nm) ([2]; Table 3, anti-Id 2.5 μg/ml): 0.074; binding of anti-Id to peptide (OD at 405 nm) ([2]; Table 3, anti-Id 5 μg/ml): 0.216; binding of control IgG to peptide (OD at 405 nm) ([3]; Table 3, Control IgG 1 μg/ml): 0.044; binding of control IgG to peptide (OD at 405 nm) ([3]; Table 3, Control IgG 5 μg/ml): 0.043
